Where a name gives a salt, the structure may show the parent alone. Read-outs that look alike come from different tables or passages of the source.
Target: T1, Human IP6K1 (Homo sapiens, UniProt Q92551)
T1 construct: GST (N, cleaved yes); made in house; host or cells: C43 E. coli, pGEX-6P-2
Assay: IP6K1 high-throughput screen of the Sigma LOPAC (ADP-Glo Max, single point);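 further: final compound concentration 10µM in 5% DMSO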
Format: biochemical

[1] = LOPAC single-point screen, ADP-Glo Max luminescence raw signal per well
[2] = LOPAC single-point screen, Z-score from plate average and StDev
[3] = LOPAC single-point screen, Z-score relative to plate average and StDev
[4] = Sigma LOPAC single-point screen, ADP-Glo Max raw signal per well
[5] = Sigma LOPAC single-point screen, Z-score from plate average and StDev
[6] = LOPAC single-point screen, ADP-Glo Max raw signal per well
[7] = LOPAC single-point screen, Z-score from raw signal with plate average and StDev
[8] = LOPAC single-point screen, Z-score against plate average and StDev

T1 sequence (Q92551 whole entry): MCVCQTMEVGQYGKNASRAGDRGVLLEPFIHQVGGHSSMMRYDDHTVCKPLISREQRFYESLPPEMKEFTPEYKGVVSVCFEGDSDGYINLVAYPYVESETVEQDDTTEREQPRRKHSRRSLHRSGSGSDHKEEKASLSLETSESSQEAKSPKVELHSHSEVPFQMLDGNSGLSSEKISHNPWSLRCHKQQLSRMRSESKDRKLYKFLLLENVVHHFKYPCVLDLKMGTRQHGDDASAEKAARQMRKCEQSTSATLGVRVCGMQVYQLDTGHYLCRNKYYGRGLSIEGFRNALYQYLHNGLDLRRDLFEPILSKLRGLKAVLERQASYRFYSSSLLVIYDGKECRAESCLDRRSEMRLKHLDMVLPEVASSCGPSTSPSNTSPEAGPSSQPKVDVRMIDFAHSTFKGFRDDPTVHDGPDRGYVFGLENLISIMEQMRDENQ

SMILES | Raw Signal [1] | Z-score [3] | Raw Signal [6] | further results
CCN(CC)CCOCCOC(=O)C1(c2ccccc2)CCCC1 [Carbetapentane citrate] | 67390 |  |  | Z-score [2]: 1.669
N.N.O=C([O-])C1(C(=O)[O-])CCC1.[Pt+2] [Carboplatin] | 53949 | -0.6982 |  | 
Cl.Cl.NCCC(=O)NCCc1c[nH]cn1 [Carcinine dihydrochloride] | 35878 | -3.881 |  | 
CCCC(C)(COC(N)=O)COC(=O)NC(C)C (centres unmarked) [Carisoprodol] |  |  |  | Raw Signal [4]: 61112; Z-score [5]: 0.5634
O=NN(CCCl)C(=O)NCCCl [Carmustine] | 54247 | -0.6457 |  | 
N[C@@H](C(=O)N[C@@H]1C(=O)N2C(C(=O)O)=C(Cl)CS[C@H]12)c1ccccc1 [Cefaclor] |  |  | 57158 | Z-score [7]: -0.133
Cc1nnc(SCC2=C(C(=O)O)N3C(=O)[C@@H](NC(=O)Cn4cnnn4)[C@H]3SC2)s1 [Cefazolin sodium] |  |  | 59148 | Z-score [8]: 0.2175
CO[C@@]1(NC(=O)CSCC#N)C(=O)N2C(C(=O)O)=C(CSc3nnnn3C)CS[C@@H]21 [Cefmetazole sodium] | 53279 | -0.8162 |  | 
CO/N=C(\C(=O)N[C@@H]1C(=O)N2C(C(=O)O)=C(COC(C)=O)CS[C@H]12)c1csc(N)n1 [Cefotaxime sodium] | 53540 | -0.7702 |  | 
NC(=O)c1cc[n+](CC2=C(C(=O)[O-])N3C(=O)[C@@H](NC(=O)C(c4ccccc4)S(=O)(=O)[O-])[C@H]3SC2)cc1.O.[Na+] (some centres unmarked) [Cefsulodin sodium salt hydrate] |  |  | 56779 | Z-score [7]: -0.1997
CO/N=C(\C(=O)N[C@@H]1C(=O)N2C(C(=O)O)=C(CSc3nc(=O)c(=O)[nH]n3C)CS[C@H]12)c1csc(N)n1 [Ceftriaxone sodium] |  |  | 55787 | Z-score [7]: -0.3745
CN(C)CCOC(=O)COc1ccc(Cl)cc1 [Centrophenoxine hydrochloride] | 69002 |  |  | Z-score [2]: 1.953
CC1=C(C(=O)O)N2C(=O)[C@@H](NC(=O)[C@H](N)c3ccccc3)[C@H]2SC1.O [Cephalexin hydrate] |  |  |  | Raw Signal [4]: 61524; Z-score [5]: 0.636
CC(=O)OCC1=C(C(=O)[O-])N2C(=O)[C@@H](NC(=O)CCC[C@@H](N)C(=O)[O-])[C@H]2SC1.[Zn+2] [Cephalosporin C zinc salt] |  |  | 57645 | Z-score [8]: -0.04722
CC(=O)OCC1=C(C(=O)O)N2C(=O)[C@@H](NC(=O)Cc3cccs3)[C@H]2SC1 [Cephalothin sodium] |  |  | 58709 | Z-score [8]: 0.1402
CC(=O)OCC1=C(C(=O)O)N2C(=O)[C@@H](NC(=O)CSc3ccncc3)[C@H]2SC1 [Cephapirin sodium] | 53491 | -0.7789 |  | 

SMILES | Raw Signal [1] | Z-score [3] | Raw Signal [6] | further results
CC1=C(C(=O)O)N2C(=O)[C@@H](NC(=O)[C@H](N)C3=CCC=CC3)[C@H]2SC1 [Cephradine] |  |  | 56353 | Z-score [7]: -0.2748
COc1ccc2c(c[n+](C)c3c4cc5c(cc4ccc23)OCO5)c1OC [Chelerythrine chloride] | 66575 |  |  | Z-score [2]: 1.5256
O=C(O)c1cc(O)cc(C(=O)O)n1 [Chelidamic acid] |  |  | 56074 | Z-score [7]: -0.3239
O=C(O)CCCc1ccc(N(CCCl)CCCl)cc1 [Chlorambucil] |  |  | 57590 | Z-score [8]: -0.05691
CN1C(=O)CCS(=O)(=O)C1c1ccc(Cl)cc1 (centres unmarked) [Chlormezanone] | 52438 | -0.5542 |  | 
CNC(=O)[C@H]1O[C@@H](n2cnc3c(NCc4cccc(I)c4)nc(Cl)nc32)[C@H](O)[C@@H]1O [Chloro-IB-MECA] | 50053 | -1.039 |  | 
CCN(CC)CCCC(C)Nc1ccnc2cc(Cl)ccc12 (centres unmarked) [Chloroquine diphosphate] |  |  |  | Raw Signal: 55954; Z-score: -0.3451
NS(=O)(=O)c1cc2c(cc1Cl)N=CNS2(=O)=O [Chlorothiazide] | 49210 | -1.533 |  | 
CN(C)CCCN1c2ccccc2Sc2ccc(Cl)cc21 [Chlorpromazine hydrochloride] |  |  |  | Raw Signal [4]: 63674; Z-score [5]: 1.015
CCCNC(=O)NS(=O)(=O)c1ccc(Cl)cc1 [Chlorpropamide] |  |  | 58549 | Z-score [8]: 0.112
CN(C)CC/C=C1/c2ccccc2Sc2ccc(Cl)cc21 [Chlorprothixene hydrochloride] |  |  |  | Raw Signal [4]: 61517; Z-score [5]: 0.6347
C[N+](C)(C)CCO.[Br-] [Choline bromide] |  |  |  | Raw Signal: 58990; Z-score: 0.1897
CN(C(=O)CCCOc1ccc2[nH]c(=O)ccc2c1)C1CCCCC1 [Cilostamide] | 54164 | -0.6603 |  | 
O=C1CCc2cc(OCCCCc3nnnn3C3CCCCC3)ccc2N1 [Cilostazol] |  |  | 58165 | Z-score [8]: 0.04437
CN/C(=N/CCSCc1nc[nH]c1C)NC#N [Cimetidine] |  |  |  | Raw Signal [4]: 62612; Z-score [5]: 0.8276

— PMC5706701, “Development of a homogenous high-throughput assay for inositol hexakisphosphate kinase 1 activity” (PLoS ONE, 2017)
